From paper PMC6757289, “Design and Characterization of SGK3-PROTAC1, an Isoform Specific SGK3 Kinase PROTAC Degrader” (ACS Chemical Biology, 2019)
Read-outs that look alike come from different tables or passages of the source.

Legend:
Assay in all cases: kinase profiling panel
Assay type in all cases: biochemical
Details in all cases: read-out: % Activity Remaining
NUAK1 = molecular target: T1, NUAK1 (Homo sapiens, UniProt O60285)
T1 sequence (O60285 1-661): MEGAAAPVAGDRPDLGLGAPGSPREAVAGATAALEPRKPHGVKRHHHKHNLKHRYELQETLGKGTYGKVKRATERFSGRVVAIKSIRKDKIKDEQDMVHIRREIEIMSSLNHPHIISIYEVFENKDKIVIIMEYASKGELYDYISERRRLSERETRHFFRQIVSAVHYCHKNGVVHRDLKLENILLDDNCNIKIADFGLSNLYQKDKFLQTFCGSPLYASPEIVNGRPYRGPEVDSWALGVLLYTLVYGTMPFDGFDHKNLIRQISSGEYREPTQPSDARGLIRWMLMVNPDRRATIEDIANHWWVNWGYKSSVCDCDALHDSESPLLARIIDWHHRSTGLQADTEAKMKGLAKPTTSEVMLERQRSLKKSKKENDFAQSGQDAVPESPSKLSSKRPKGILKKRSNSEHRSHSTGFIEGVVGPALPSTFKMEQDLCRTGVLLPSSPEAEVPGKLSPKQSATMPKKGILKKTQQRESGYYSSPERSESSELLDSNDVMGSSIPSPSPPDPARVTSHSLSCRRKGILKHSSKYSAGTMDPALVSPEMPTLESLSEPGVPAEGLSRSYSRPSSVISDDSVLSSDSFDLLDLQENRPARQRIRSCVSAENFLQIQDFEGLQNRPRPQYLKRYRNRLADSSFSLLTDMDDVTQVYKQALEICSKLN
Excerpt: (§1) Protein kinase profiling against a Dundee panel of 140 protein kinases was undertaken at the International Centre for Protein Kinase Profiling. The result for each kinase was presented as a mean kinase activity of the reaction taken in triplicate relative to a control sample treated with DMSO. Assay conditions and abbreviations are available at http://www.kinase-screen.mrc.ac.uk.

CDK9-Cyclin T1 = CDK9-Cyclin T1 (Homo sapiens, UniProt P50750)
Chain of CDK9-Cyclin T1 (P50750 whole entry): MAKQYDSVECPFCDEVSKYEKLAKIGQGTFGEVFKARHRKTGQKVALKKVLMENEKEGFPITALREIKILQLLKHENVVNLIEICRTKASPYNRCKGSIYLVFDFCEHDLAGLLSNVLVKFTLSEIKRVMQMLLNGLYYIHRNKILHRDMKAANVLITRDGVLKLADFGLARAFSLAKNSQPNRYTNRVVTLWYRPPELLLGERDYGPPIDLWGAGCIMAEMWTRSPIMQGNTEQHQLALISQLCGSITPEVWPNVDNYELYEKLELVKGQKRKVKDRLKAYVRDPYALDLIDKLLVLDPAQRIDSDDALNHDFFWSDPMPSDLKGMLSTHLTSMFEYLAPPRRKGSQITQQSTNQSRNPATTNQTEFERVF
Chain of CDK9-Cyclin T1 (O60563 whole entry partner): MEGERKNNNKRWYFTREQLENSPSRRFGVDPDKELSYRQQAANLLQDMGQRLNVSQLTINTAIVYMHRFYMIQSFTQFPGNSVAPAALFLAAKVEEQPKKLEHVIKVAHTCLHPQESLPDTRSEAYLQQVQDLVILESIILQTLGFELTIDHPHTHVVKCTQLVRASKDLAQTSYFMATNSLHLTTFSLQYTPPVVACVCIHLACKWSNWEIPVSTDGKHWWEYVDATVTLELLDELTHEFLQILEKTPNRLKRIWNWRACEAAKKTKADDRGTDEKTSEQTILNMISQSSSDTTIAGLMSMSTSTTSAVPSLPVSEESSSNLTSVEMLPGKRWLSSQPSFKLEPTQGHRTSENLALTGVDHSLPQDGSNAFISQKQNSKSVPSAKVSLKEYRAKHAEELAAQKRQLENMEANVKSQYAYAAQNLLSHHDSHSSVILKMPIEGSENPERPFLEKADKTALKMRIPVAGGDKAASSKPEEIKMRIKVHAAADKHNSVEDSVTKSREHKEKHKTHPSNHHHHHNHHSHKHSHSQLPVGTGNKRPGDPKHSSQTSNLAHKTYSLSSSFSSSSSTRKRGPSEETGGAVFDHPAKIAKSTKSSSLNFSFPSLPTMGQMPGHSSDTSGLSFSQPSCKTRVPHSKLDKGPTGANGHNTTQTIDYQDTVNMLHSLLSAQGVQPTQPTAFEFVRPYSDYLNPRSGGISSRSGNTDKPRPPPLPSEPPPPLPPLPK
Excerpt: as §1

EPH-B4 = molecular target: T2, EPH-B4 (Homo sapiens, UniProt P54760)
T2 sequence (P54760 16-987): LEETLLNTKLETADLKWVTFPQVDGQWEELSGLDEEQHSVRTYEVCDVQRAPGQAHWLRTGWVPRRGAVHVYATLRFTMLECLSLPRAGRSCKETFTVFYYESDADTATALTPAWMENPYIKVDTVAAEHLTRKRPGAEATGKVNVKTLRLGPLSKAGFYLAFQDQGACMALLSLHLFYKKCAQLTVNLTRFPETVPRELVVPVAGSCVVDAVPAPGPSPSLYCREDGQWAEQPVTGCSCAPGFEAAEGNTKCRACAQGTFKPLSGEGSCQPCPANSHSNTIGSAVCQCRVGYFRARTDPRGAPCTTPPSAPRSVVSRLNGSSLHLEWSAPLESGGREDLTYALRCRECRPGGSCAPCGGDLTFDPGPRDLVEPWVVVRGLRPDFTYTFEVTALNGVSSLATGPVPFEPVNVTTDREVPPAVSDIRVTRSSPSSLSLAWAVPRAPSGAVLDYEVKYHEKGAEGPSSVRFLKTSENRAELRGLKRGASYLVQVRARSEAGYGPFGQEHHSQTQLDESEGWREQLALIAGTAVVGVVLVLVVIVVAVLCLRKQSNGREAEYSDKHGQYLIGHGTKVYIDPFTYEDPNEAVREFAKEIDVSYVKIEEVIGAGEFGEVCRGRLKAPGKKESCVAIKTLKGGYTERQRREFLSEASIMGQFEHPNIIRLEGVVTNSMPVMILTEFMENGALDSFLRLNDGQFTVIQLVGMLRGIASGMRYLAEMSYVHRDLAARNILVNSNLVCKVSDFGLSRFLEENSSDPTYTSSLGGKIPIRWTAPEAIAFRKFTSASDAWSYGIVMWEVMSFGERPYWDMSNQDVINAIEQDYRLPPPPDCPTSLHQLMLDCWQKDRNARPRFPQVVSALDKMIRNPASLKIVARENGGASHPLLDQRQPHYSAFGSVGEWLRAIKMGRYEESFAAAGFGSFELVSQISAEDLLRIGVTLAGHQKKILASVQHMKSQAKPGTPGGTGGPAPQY
Excerpt: as §1

EPH-B2 = molecular target: T3, EPH-B2 (Homo sapiens, UniProt P29323)
T3 sequence (P29323 19-1055): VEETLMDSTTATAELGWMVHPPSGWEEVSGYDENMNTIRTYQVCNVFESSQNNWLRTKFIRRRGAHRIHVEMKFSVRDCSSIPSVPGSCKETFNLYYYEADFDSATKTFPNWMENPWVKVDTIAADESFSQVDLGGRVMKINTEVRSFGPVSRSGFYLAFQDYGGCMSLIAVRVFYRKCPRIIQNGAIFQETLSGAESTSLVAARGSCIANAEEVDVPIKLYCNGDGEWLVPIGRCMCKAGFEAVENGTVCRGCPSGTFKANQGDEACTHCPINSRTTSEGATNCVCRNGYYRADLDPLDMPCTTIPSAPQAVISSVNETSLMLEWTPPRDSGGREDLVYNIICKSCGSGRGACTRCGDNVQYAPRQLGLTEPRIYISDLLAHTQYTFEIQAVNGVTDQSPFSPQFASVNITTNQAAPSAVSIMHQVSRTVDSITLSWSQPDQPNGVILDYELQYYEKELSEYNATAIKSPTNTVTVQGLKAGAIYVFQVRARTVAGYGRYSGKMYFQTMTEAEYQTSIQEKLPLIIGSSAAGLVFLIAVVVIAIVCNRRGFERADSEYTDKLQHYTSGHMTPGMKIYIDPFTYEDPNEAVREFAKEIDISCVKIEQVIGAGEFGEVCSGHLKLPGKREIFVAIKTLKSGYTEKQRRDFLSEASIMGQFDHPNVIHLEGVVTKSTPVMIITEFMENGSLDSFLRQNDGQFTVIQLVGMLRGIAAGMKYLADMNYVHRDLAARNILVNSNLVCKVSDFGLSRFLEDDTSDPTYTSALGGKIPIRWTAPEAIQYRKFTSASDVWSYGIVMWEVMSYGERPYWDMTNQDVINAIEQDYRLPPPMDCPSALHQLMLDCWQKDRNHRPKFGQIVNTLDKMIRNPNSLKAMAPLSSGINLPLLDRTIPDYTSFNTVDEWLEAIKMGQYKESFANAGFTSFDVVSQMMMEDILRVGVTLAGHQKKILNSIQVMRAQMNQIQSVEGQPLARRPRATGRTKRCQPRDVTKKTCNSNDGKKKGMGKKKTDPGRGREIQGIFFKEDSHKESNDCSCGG
Excerpt: as §1

PKB beta = PKB beta (Homo sapiens, UniProt P31751)
Chain of PKB beta (P31751 whole entry): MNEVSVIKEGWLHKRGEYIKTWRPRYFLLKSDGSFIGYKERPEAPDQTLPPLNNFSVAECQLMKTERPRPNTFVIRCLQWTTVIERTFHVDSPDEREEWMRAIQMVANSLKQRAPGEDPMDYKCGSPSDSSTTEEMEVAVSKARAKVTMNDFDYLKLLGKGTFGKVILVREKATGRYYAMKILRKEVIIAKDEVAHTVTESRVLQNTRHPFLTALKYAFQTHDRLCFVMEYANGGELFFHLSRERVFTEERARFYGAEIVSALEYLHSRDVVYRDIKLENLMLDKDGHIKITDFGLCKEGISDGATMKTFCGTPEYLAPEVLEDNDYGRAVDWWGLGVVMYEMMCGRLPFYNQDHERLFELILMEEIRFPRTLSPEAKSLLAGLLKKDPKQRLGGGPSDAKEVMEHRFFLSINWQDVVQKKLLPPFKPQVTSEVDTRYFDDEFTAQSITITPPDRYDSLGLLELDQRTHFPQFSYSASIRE
Excerpt: as §1

GSK3 beta = GSK3 beta (Homo sapiens, UniProt P49841)
Chain of GSK3 beta (P49841 whole entry): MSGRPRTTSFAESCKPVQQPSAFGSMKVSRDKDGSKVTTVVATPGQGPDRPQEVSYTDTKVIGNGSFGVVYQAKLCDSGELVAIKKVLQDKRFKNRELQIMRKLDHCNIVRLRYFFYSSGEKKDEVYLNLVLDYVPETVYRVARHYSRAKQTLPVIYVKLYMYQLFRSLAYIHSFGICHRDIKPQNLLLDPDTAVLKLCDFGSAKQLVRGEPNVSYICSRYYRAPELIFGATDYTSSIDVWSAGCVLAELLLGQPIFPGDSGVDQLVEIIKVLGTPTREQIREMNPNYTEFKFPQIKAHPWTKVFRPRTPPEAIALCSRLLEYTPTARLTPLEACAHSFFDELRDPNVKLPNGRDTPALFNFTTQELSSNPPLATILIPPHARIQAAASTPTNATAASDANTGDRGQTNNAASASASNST
Excerpt: as §1

MELK = MELK (Homo sapiens, UniProt Q14680)
Chain of MELK (Q14680 whole entry): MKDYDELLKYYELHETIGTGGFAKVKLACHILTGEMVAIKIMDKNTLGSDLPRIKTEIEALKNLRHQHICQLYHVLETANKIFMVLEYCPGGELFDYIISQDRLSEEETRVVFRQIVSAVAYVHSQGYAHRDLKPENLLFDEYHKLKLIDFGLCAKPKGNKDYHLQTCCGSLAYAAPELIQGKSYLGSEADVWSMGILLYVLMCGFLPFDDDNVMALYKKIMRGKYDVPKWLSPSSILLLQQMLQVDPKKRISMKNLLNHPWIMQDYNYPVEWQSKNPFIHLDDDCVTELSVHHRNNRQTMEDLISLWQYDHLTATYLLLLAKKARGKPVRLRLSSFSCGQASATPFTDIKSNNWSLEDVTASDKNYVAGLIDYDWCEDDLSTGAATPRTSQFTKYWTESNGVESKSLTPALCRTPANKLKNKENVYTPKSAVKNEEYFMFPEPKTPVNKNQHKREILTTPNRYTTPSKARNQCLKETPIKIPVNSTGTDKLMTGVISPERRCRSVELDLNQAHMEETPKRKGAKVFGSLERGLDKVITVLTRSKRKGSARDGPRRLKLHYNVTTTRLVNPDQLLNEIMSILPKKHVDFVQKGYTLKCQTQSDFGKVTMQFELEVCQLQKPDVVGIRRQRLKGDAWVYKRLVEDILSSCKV
Excerpt: as §1

**Q.** Which remaining activity at 1 µM (NUAK1; 1 µM) does the source give for Cc1ccc(F)c(S(=O)(=O)Nc2ccc(-c3nc(OC[C@H]4CN(CCCCCCOCCOCCOCC(=O)N[C@H](C(=O)N5C[C@H](O)C[C@H]5C(=O)NCc5ccc(-c6scnc6C)cc5)C(C)(C)C)CCO4)c4cn[nH]c4n3)cc2)c1 [SGK3-PROTAC1] here?
**A.** 98%

**Q.** And the remaining activity at 1 µM (CDK9-Cyclin T1; 1 µM)?
**A.** 103%

**Q.** What about the remaining activity at 1 µM (EPH-B4; 1 µM) of the same compound?
**A.** 107%

**Q.** And the remaining activity at 1 µM (EPH-B2; 1 µM)?
**A.** 94%

**Q.** What about the remaining activity at 1 µM (PKB beta; 1 µM) of the same compound?
**A.** 99%

**Q.** What about the remaining activity at 1 µM (GSK3 beta; 1 µM) of the same compound?
**A.** 108%

**Q.** And the remaining activity at 1 µM (MELK; 1 µM)?
**A.** 91%

**Q.** Which results are given for COc1ccc(Cl)c(S(=O)(=O)Nc2ccc(-c3nc(OC[C@H]4CNCCO4)c4c(C)n[nH]c4n3)cc2)c1 [290-R, reference compound]?
**A.** remaining activity at 1 µM (NUAK1): 91%; remaining activity at 1 µM (CDK9-Cyclin T1): 105%; remaining activity at 1 µM (EPH-B4): 103%; remaining activity at 1 µM (EPH-B2): 120%; remaining activity at 1 µM (PKB beta): 55%; remaining activity at 1 µM (GSK3 beta): 90%; remaining activity at 1 µM (MELK): 11%

**Q.** Which remaining activity at 1 µM (NUAK1; 1 µM) does the source give for Cc1ccc(F)c(S(=O)(=O)Nc2ccc(-c3nc(OC[C@H]4CN(CCCCCCOCCOCCOCC(=O)N[C@H](C(=O)N5C[C@@H](O)C[C@H]5C(=O)NCc5ccc(-c6scnc6C)cc5)C(C)(C)C)CCO4)c4cn[nH]c4n3)cc2)c1 [cisSGK3-PROTAC1] here?
**A.** 90%

**Q.** And the remaining activity at 1 µM (CDK9-Cyclin T1; 1 µM)?
**A.** 105%

**Q.** And the remaining activity at 1 µM (EPH-B4; 1 µM)?
**A.** 108%

**Q.** And the remaining activity at 1 µM (EPH-B2; 1 µM)?
**A.** 97%

**Q.** And the remaining activity at 1 µM (PKB beta; 1 µM)?
**A.** 101%

**Q.** And the remaining activity at 1 µM (GSK3 beta; 1 µM)?
**A.** 106%

**Q.** And the remaining activity at 1 µM (MELK; 1 µM)?
**A.** 100%

**Q.** Which results are given for Cc1ccc(F)c(S(=O)(=O)Nc2ccc(-c3nc(OC[C@H]4CNCCO4)c4cn[nH]c4n3)cc2)c1 [308-R, reference compound]?
**A.** remaining activity at 1 µM (NUAK1): 103%; remaining activity at 1 µM (CDK9-Cyclin T1): 63%; remaining activity at 1 µM (EPH-B4): 124%; remaining activity at 1 µM (EPH-B2): 56%; remaining activity at 1 µM (PKB beta): 35%; remaining activity at 1 µM (GSK3 beta): 92%; remaining activity at 1 µM (MELK): 19%
